Consider 29 compounds from patent US20230103791A1 (GLAXOSMITHKLINE INTELLECTUAL PROPERTY DEVELOPMENT LIMITED, priority 2019, published 2023).

SMILES strings stand for the structures. Some results are limits rather than exact numbers.

In the experiment the target is T1, human Nav1.8 (Homo sapiens, UniProt Q9Y5Y9).
T1 construct: expressed in transfected cells; host or cells: HEK293 (HEK293-Nav1.8)
T1 sequence (Q9Y5Y9 whole entry): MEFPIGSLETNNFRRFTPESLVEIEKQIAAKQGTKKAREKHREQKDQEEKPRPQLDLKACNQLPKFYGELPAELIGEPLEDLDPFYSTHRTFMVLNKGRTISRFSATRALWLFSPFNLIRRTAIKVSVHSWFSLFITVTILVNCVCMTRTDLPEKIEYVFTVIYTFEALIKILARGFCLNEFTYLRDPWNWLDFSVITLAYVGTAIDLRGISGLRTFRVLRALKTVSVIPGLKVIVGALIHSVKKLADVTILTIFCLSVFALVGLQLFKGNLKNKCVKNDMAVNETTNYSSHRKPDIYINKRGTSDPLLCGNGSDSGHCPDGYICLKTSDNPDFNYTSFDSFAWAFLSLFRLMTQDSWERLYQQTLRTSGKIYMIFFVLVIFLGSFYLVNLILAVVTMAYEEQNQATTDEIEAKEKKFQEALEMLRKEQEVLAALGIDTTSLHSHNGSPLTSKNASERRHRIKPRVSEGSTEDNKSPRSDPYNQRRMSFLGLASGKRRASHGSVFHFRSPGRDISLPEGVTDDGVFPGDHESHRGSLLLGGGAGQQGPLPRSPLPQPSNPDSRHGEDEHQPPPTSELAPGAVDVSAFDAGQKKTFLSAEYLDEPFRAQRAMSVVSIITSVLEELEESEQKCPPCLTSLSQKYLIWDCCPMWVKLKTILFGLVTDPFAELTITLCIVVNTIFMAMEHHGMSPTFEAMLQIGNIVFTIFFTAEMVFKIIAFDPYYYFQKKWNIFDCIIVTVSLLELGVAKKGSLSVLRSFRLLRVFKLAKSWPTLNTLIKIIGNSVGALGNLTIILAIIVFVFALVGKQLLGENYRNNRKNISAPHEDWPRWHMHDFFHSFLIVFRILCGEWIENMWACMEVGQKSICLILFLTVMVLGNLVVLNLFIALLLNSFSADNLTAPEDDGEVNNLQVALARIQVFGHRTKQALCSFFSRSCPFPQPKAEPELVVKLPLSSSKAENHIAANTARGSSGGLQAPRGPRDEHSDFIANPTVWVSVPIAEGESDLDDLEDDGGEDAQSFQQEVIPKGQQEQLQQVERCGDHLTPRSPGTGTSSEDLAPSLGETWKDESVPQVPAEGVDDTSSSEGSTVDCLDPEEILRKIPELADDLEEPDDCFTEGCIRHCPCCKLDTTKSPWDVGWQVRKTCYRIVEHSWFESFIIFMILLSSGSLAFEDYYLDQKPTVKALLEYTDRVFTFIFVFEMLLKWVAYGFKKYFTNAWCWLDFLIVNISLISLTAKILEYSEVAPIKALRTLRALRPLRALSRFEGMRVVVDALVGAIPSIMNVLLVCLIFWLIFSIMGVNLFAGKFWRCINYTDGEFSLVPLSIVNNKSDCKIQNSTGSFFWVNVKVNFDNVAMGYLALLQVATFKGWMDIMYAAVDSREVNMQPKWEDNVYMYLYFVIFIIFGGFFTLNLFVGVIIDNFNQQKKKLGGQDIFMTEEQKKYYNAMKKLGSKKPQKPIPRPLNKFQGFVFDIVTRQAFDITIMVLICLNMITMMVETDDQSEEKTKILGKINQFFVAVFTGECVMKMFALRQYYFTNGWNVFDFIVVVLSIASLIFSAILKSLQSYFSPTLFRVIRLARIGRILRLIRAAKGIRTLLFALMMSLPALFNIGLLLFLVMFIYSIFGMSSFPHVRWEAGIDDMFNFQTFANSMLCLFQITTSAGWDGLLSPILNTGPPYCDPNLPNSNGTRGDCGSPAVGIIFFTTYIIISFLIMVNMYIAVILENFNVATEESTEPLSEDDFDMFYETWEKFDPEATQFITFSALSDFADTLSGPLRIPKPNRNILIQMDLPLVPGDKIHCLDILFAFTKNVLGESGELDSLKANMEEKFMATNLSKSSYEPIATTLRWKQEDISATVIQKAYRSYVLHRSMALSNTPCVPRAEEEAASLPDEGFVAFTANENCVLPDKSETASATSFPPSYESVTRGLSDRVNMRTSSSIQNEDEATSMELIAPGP
T1 sequence (Q07699 19-218 partner): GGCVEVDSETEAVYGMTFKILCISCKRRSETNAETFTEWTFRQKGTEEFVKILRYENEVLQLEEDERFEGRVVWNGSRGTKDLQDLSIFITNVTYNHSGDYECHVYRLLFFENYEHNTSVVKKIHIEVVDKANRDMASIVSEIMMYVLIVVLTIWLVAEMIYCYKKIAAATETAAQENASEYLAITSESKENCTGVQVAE
The experiment in a line: Nav1.8 sodium channels assay, QPatch 48 HTX electrophysiology in HEK293-Nav1.8 cells. In kind it is cell-based. As to conditions: at least one set of experimental runs; read-out: average pIC50 value against Nav1.8 (converted). The method in brief:
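IC50 came from 6-8 point curves of P2 current amplitude, normalized to baseline and a positive reference, and corrected for run-down using vehicle-only wells. Automated patch clamp used HEK293-Nav1.8 (with Navβ1 and TREK1) at pH 7.4 outside and CsF-based solution inside. An 8 s inactivating step at −46 mV preceded the 0 mV test pulse, repeated at 0.07 Hz.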
A general note: In patch-clamp work, channel activity is measured electrically.
For the compound `Cc1cc(=O)[nH]cc1N1CN(c2ccc(F)cc2C)c2ccc(C(F)(F)F)cc2C1=O` [Example 179, 1-(4-fluoro-2-methylphenyl)-3-(4-methyl-6-oxo-1,6-dihydropyridin-3-yl)-6-(trifluoromethyl)-2,3-dihydroquinazolin-4(1H)-one], the IC50 was 126 to 631 nM.

On to `Cc1[nH]c(=O)ccc1N1CN(c2ccc(F)cc2C(C)C)c2ccc(F)cc2C1=O` [Example 180, 6-fluoro-1-(4-fluoro-2-isopropylphenyl)-3-(2-methyl-6-oxo-1,6-dihydropyridin-3-yl)-2,3-dihydroquinazolin-4(1H)-one], for which the IC50 is at most 100 nM.

`Cc1[nH]c(=O)ccc1N1CN(c2ccc(F)cc2C2CC2)c2ccccc2C1=O` [Example 181, 1-(2-cyclopropyl-4-fluorophenyl)-3-(2-methyl-6-oxo-1,6-dihydropyridin-3-yl)-2,3-dihydroquinazolin-4(1H)-one]: the IC50 is 126 to 631 nM.

On to `Cc1[nH]c(=O)ccc1N1CN(c2ccc(F)cc2C2CC2)c2cc(C(F)(F)F)ccc2C1=O` [Example 182, 1-(2-cyclopropyl-4-fluorophenyl)-3-(2-methyl-6-oxo-1,6-dihydropyridin-3-yl)-7-(trifluoromethyl)-2,3-dihydroquinazolin-4(1H)-one], for which the IC50 is at most 100 nM.

In the case of `Cc1cc(F)ccc1N1CN(c2ccc(=O)[nH]c2C)C(=O)c2c(F)cccc21` [Example 183, 5-fluoro-1-(4-fluoro-2-methylphenyl)-3-(2-methyl-6-oxo-1,6-dihydropyridin-3-yl)-2,3-dihydroquinazolin-4(1H)-one], the IC50 was 126 to 631 nM.

With `CCc1cc(F)ccc1N1CN(c2ccc(=O)[nH]c2C)C(=O)c2ccc(C(F)(F)F)cc21` [Example 184, 1-(2-ethyl-4-fluorophenyl)-3-(2-methyl-6-oxo-1,6-dihydropyridin-3-yl)-7-(trifluoromethyl)-2,3-dihydroquinazolin-4(1H)-one], the IC50 is at most 100 nM.

Regarding `Cc1cc(F)ccc1N1CN(c2ccc(=O)[nH]c2C)C(=O)c2ccc(OC(F)F)cc21` [Example 185, 7-(difluoromethoxy)-1-(4-fluoro-2-methylphenyl)-3-(2-methyl-6-oxo-1,6-dihydropyridin-3-yl)-2,3-dihydroquinazolin-4(1H)-one], the IC50 is at most 100 nM.

As to `Cc1cc(F)ccc1-n1c(=O)n(-c2ccc(=O)[nH]c2)c(=O)c2ccc(C(F)(F)F)cc21` [Example 186, 1-(4-fluoro-2-methylphenyl)-3-(6-oxo-1,6-dihydropyridin-3-yl)-7-(trifluoromethyl) quinazoline-2,4(1H,3H)-dione], the IC50 was 794 to 7940 nM.

With `Cc1cc(F)ccc1N1CN(c2ccc(=O)[nH]c2C)C(=O)c2ccc(C3CC3)cc21` [Example 187, 7-cyclopropyl-1-(4-fluoro-2-methylphenyl)-3-(2-methyl-6-oxo-1,6-dihydropyridin-3-yl)-2,3-dihydroquinazolin-4(1H)-one], the IC50 is at most 100 nM.

Regarding `Cc1cc(F)ccc1N1CN(c2ccc(=O)[nH]c2C)C(=O)c2cc(OC(F)(F)F)ccc21` [Example 188, 1-(4-fluoro-2-methylphenyl)-3-(2-methyl-6-oxo-1,6-dihydropyridin-3-yl)-6-(trifluoromethoxy)-2,3-dihydroquinazolin-4(1H)-one], the IC50 is at most 100 nM.

`Cc1cc(OC(F)F)ccc1N1CN(c2ccc(=O)[nH]c2C)C(=O)c2cc(C(F)(F)F)ccc21` [Example 189, 1-(4-(difluoromethoxy)-2-methylphenyl)-3-(2-methyl-6-oxo-1,6-dihydropyridin-3-yl)-6-(trifluoromethyl)-2,3-dihydroquinazolin-4(1H)-one]: the IC50 is at most 100 nM.

With `CCc1[nH]c(=O)ccc1N1CN(c2ccc(F)cc2C)c2cc(OC(F)(F)F)ccc2C1=O` [Example 190, 3-(2-ethyl-6-oxo-1,6-dihydropyridin-3-yl)-1-(4-fluoro-2-methylphenyl)-7-(trifluoromethoxy)-2,3-dihydroquinazolin-4(1H)-one], the IC50 was at most 100 nM.

On to `CCc1cc(F)ccc1N1CN(c2ccc(=O)[nH]c2C)C(=O)c2cc(Cl)c(F)cc21` [Example 191, 6-chloro-1-(2-ethyl-4-fluorophenyl)-7-fluoro-3-(2-methyl-6-oxo-1,6-dihydropyridin-3-yl)-2,3-dihydroquinazolin-4(1H)-one], for which the IC50 is at most 100 nM.

Take `CCc1cc(F)ccc1N1CN(c2ccc(=O)[nH]c2C)C(=O)c2cc(Cl)c(C#N)cc21` [Example 192, 6-chloro-1-(2-ethyl-4-fluorophenyl)-3-(2-methyl-6-oxo-1,6-dihydropyridin-3-yl)-4-oxo-1,2,3,4-tetra-hydroquinazoline-7-carbonitrile]: the IC50 was at most 100 nM.

`Cc1cc(F)ccc1N1CN(c2ccc(=O)[nH]c2C)C(=O)c2c1cc(F)c(Cl)c2F` [Example 193, 6-chloro-5,7-difluoro-1-(4-fluoro-2-methylphenyl)-3-(2-methyl-6-oxo-1,6-dihydropyridin-3-yl)-2,3-dihydroquinazolin-4(1H)-one]: the IC50 is at most 100 nM.

Consider `Cc1cc(F)ccc1N1CN(c2ccc(=O)[nH]c2C)C(=O)c2c1cc(C#N)c(Cl)c2F` [Example 194, 6-chloro-5-fluoro-1-(4-fluoro-2-methylphenyl)-3-(2-methyl-6-oxo-1,6-dihydropyridin-3-yl)-4-oxo-1,2,3,4-tetra-hydroquinazoline-7-carbonitrile], for which the IC50 was at most 100 nM.

`Cc1cc(C(F)(F)F)ccc1N1CN(c2ccc(=O)[nH]c2C)C(=O)c2cc(C(F)(F)F)cnc21` [Example 195, 1-(2-methyl-4-(trifluoromethyl)phenyl)-3-(2-methyl-6-oxo-1,6-dihydropyridin-3-yl)-6-(trifluoromethyl)-2,3-dihydropyrido[2,3-d]pyrimidin-4(1H)-one]: the IC50 was 794 to 7940 nM.

With `Cc1cc(Cl)ccc1N1CN(c2ccc(=O)[nH]c2C)C(=O)c2cc(C(F)(F)F)cnc21` [Example 196, 1-(4-chloro-2-methylphenyl)-3-(2-methyl-6-oxo-1,6-dihydropyridin-3-yl)-6-(trifluoromethyl)-2,3-dihydropyrido[2,3-d]pyrimidin-4(1H)-one], the IC50 is 126 to 631 nM.

In the case of `Cc1cc(F)ccc1N1CN(c2ccc(=O)[nH]c2C)C(=O)c2ccc(C(F)(F)CO)cc21` [Example 197, 7-(1,1-difluoro-2-hydroxyethyl)-1-(4-fluoro-2-methylphenyl)-3-(2-methyl-6-oxo-1,6-dihydropyridin-3-yl)-2,3-dihydroquinazolin-4(1H)-one], the IC50 is 794 to 7940 nM.

As for `Cc1cc(F)ccc1N1CN(c2ccc(=O)[nH]c2C(C)C)C(=O)c2ccc(C(F)(F)F)cc21` [Example 198, 1-(4-fluoro-2-methylphenyl)-3-(2-isopropyl-6-oxo-1,6-dihydropyridin-3-yl)-7-(trifluoromethyl)-2,3-dihydroquinazolin-4(1H)-one], the IC50 is at most 100 nM.

For the compound `Cc1cc(F)ccc1N1CN(c2ccc(=O)[nH]c2NCCO)C(=O)c2ccc(C(F)(F)F)cc21` [Example 199, 1-(4-fluoro-2-methylphenyl)-3-(2-((2-hydroxy-ethyl)amino)-6-oxo-1,6-dihydropyridin-3-yl)-7-(trifluoromethyl)-2,3-dihydroquinazolin-4(1H)-one], the IC50 is 126 to 631 nM.

As to `Cc1[nH]c(=O)ccc1N1CN(c2ccc(F)cc2N(C)C)c2ccc(Cl)cc2C1=O` [Example 200, 6-chloro-1-(2-(dimethylamino)-4-fluorophenyl)-3-(2-methyl-6-oxo-1,6-dihydropyridin-3-yl)-2,3-dihydroquinazolin-4(1H)-one], the IC50 was at most 100 nM.

`CNc1cc(F)ccc1N1CN(c2ccc(=O)[nH]c2C)C(=O)c2cc(Cl)ccc21` [Example 201, 6-chloro-1-(4-fluoro-2-(methylamino)phenyl)-3-(2-methyl-6-oxo-1,6-dihydropyridin-3-yl)-2,3-dihydroquinazolin-4(1H)-one]: the IC50 is at most 100 nM.

For the compound `Cc1cc(C(F)(F)CO)ccc1N1CN(c2ccc(=O)[nH]c2C)C(=O)c2ccc(C(F)(F)F)cc21` [Example 202, 1-(4-(1,1-difluoro-2-hydroxyethyl)-2-methylphenyl)-3-(2-methyl-6-oxo-1,6-dihydropyridin-3-yl)-7-(trifluoromethyl)-2,3-dihydroquinazolin-4(1H)-one], the IC50 was 794 to 7940 nM.

Turning to `Cc1ccc(N2CN(c3ccc(=O)[nH]c3C)C(=O)c3ccc(C(F)(F)F)cc32)c(C)c1` [Example 203, 1-(2,4-dimethylphenyl)-3-(2-methyl-6-oxo-1,6-dihydropyridin-3-yl)-7-(trifluoromethyl)-2,3-dihydroquinazolin-4(1H)-one], the IC50 was at most 100 nM.

As for `Cc1cc(F)ccc1N1CN(c2ccc[nH]c2=O)C(=O)c2ccc(C(F)(F)F)cc21` [Example 204, 1-(4-fluoro-2-methylphenyl)-3-(2-oxo-1,2-dihydropyridin-3-yl)-7-(trifluoromethyl)-2,3-dihydroquinazolin-4(1H)-one], the IC50 is 794 to 7940 nM.

For the compound `Cc1cc(F)ccc1N1CN(c2cnc(=O)[nH]c2C)C(=O)c2ccc(OC(F)(F)F)cc21` [Example 205, 1-(4-fluoro-2-methylphenyl)-3-(6-methyl-2-oxo-1,2-dihydropyrimidin-5-yl)-7-(trifluoromethoxy)-2,3-dihydroquinazolin-4(1H)-one], the IC50 is at most 100 nM.

For the compound `Cc1ccc2c(n1)N(c1ccc(F)cc1C)CN(c1ccc(=O)[nH]c1C)C2=O` [Example 206, 1-(4-fluoro-2-methylphenyl)-7-methyl-3-(2-methyl-6-oxo-1,6-dihydropyridin-3-yl)-2,3-dihydropyrido[2,3-d]pyrimidin-4(1H)-one], the IC50 was 126 to 631 nM.

On to `CCc1cc(F)ccc1N1CN(c2ccc(=O)[nH]c2C)C(=O)c2cc(Cl)c(C#N)nc21` [Example 207, 6-chloro-1-(2-ethyl-4-fluorophenyl)-3-(2-methyl-6-oxo-1,6-dihydropyridin-3-yl)-4-oxo-1,2,3,4-tetrahydropyrido [2,3-d]pyrimidine-7-carbonitrile], for which the IC50 was at most 100 nM.
